Measurements published in US12636260B2, “Application of α-asarone in preparation of medicine for preventing or treating hemorrhagic stroke” (CHENGDU XINRUI TAIKANG TECHNOLOGY CO., LTD., priority 2021, dated 2026).

Assays:
[1] = tested on: mouse bone marrow cells; assay: Mouse bone marrow micronucleus test by flow cytometry; format: in vivo; conditions: mice; for MNPCE / PCE / fMNPCE (‰): 4 days
Protocol: Experimental grouping and administration: The animals were randomly divided into five groups with 10 […] in each group: blank control group (blank group, administrated blank emulsion with the same volume as the high-dose group of α-asarone), cyclophosphamide group (CTX group, 40 mg/kg), low dose of α-asarone emulsion injection group (prepared by preparation embodiment 7, 100 mg/kg/day, ASA-L group), medium dose of α-asarone emulsion injection group (prepared by preparation embodiment 7, 150 mg/kg/day, ASA-M group), and high dose of α-asarone emulsion injection group (prepared from preparation embodiment 7, 200 mg/kg/day, ASA-H group).
All drugs were administrated through the tail vein for continuous 4 days except for the single injection of the positive control drug cyclophosphamide (CTX) 24 hours before sampling. After 24 hours of the last administration, the mice were sacrificed to separate both femurs. The femoral bone marrow cells were washed with PBS and filtered by 300 mesh nylon cell sieves to prepare a single-cell suspension. The suspension was centrifuged at 1650 rpm for 5 min, and the cell concentration was adjusted to 5×10^6 cells/mL by PBS resuspension. For each sample, 100 μL of the cell suspension was incubated with 400 μL of the PIPES-PI solution (10 mL of PIPES solution (concentration of 3.5 mg/mL)+0.5 mg PI+0.01 mL Triton X-100 (concentration of 0.1%)), gently blown and mixed, at 4° C. in the dark for 30 min and detected by a flow cytometry. […] The higher the value, the stronger the genotoxicity.

[2] = tested on: SAH rats; assay: Short-term neurological function of SAH rats (Garcia score, beam balance test, bleeding score); format: in vivo, rat; conditions: SAH model, 24 hours after modeling; group O, α-asarone emulsion oral administration 40 mg/kg
[3] = tested on: ICH rats; assay: Short-term neurological function of ICH rats (Garcia score, beam balance test); format: in vivo, rat; conditions: ICH model; for Beam balance score / Garcia score: 24 hours after modeling
Protocol: Experimental grouping: At 2 h after endovascular perforation or collagenase VII injection, Zea Longa score was used to evaluate the neurological function of rats. Successful model rats were randomly divided into groups for administration.
All groups were administrated through the tail vein injection except for group N administrated intraperitoneally.
The rats were fasted for 12 hours before operation, and were anesthetized with 4% isoflurane, and kept anesthetized with 2% isoflurane. The animals were fixed in the prone position in a stereotaxic apparatus with the body temperature maintained at about 37° C. A traditional skin incision of the head was prepared along the midline. According to the stereotaxic atlas of the rat brain translated by Zhuge Qichao (George Paxinos, Charles Watson, Paxinos, Watson, & Zhuge Qichao. The Rat Brain in Stereotaxic Coordinates [M]. People's Medical Publishing House, 2005), the right caudate nucleus of the rat was determined as 0.0 mm anterior, 3.0 mm lateral to the bregma, and 5.5 mm ventral to the cortical surface. After labeling, we drilled an open window in the skull, and 1 μL of 0.5 U collagenase VII was slowly injected for 5 minutes with a microinjector. After the injection, the needle was stagnated for 8 minutes and slowly withdrawn. Then the scalp was sutured after the burr hole of skull was sealed with a sterile bone wax, and the rats were returned to the cage for normal feeding. The sham group conducted the same procedure as the model group, but received an equal volume of physiological saline into the caudate nucleus.
According to Zea Longa's neurological function score, the rats were scored 2 hours after the operation when they were awake from anesthesia. Successful model rats with a score of 1 to 3 points were enrolled in the group: • 0 points: no neurological deficits with normal activity; • 1 point: inability to fully extend the contralateral forepaw; • 2 points: the animal appears to turn in circles when crawling; • 3 points: the animal tends to lean to the hemiplegic side; • 4 points: the animal cannot walk spontaneously or loses consciousness. 1.4 Assessment of Short-Term Neurological Function
The neurological function of rats was comprehensively evaluated with Garcia score and beam balance test 24 hours after modeling. The criteria of Garcia score are shown in Table 1, which evaluates the movement, sensation, climbing and limb symmetry of the rats with the score range of 3 to 18 points. The lower the score, the more severe the neurological injury. The criteria of the beam balance test are shown in Table 2, which evaluated the proprioception and body coordination of rats with the score range of 0 to 6 points. The higher the score, the more severe the neurological injury. Scoring was done independently by a technician blinded to the modeling and drug administration.

[4] = tested on: ICH rats; assay: Brain water content and blood-brain barrier permeability (Evans blue), ICH rats; format: in vivo, rat; conditions: 24 hours after operation, group M, medium-dose intravenous, vs model group
Protocol: After completing the evaluation of 24-hour short-term neurological function, 4% Evans blue solution (2.5 mL/kg) was injected into the right caudal vein of the rats. After circulated for 1 hour, the rats were deeply anesthetized and transcardinally perfused with 100 mL of normal saline to collect the rats' brain. The whole brain was divided into four groups: left hemisphere (LH), right hemisphere (RH), cerebellum (Cb) and brainstem (BS). The left and right hemispheres were coronally divided into two parts, one part was immediately weighed (wet weight) with a balance with an accuracy of 0.1 mg, dried in an oven at 105° C. for 24 hours and weighed again (dry weight). The brain water content was calculated as [(wet weight−dry weight)/wet weight]×100%. The other part of the brain tissue was weighed (wet weight) and emerged into 10 times the volume of pure formamide, incubated at 60° C. for 48 hours, centrifuged at 25° C. for 30 min (10,000 rpm/min). The Evans blue in the supernatant was measured at 622 nm by a UV spectrophotometry, and calculated with a standard curve for quantification. The amount of Evans blue was expressed as μg/g of brain tissue (wet weight).

[5] = tested on: SAH rats; assay: Ca2+ level and mitochondrial membrane potential in brain tissue, SAH rats; format: in vivo, rat; conditions: 12-24 hours after operation, group M
Protocol: The rats were decapitated to collect the brain 12 to 24 hours after modeling. The brain cortex around the hematoma was immediately taken to prepare a single cell suspension by enzymatic digestion (papain: 2 mg/mL; DNAase I: 0.05 mg/mL), with the cell concentration was adjusted to 5×10^6 cells/mL. 100 μL of cell suspension was incubated with 5 μM Fluo-3/AM dye solution or 10 μM Rhodamine 123 dye solution at 37° C. for 45 min. Then the cells were washed twice with PBS (phosphate buffer, pH=7.2-7.4), resuspended with 0.5 mL of PBS, and detected by a flow cytometry at the excitation wavelength of 506 nm and the emission wavelength of 526 nm. The mean fluorescence intensity of Fluo-3 and Rh123 in 10,000 cells was analyzed by FlowJo software.

[6] = ASA-H group, α-asarone emulsion injection 200 mg/kg/day tail vein
[7] = ASA-L group, α-asarone emulsion injection 100 mg/kg/day tail vein
[8] = ASA-M group, α-asarone emulsion injection 150 mg/kg/day tail vein
[9] = group H, α-asarone emulsion injection 30 mg/kg tail vein
[10] = group L, α-asarone emulsion injection 7.5 mg/kg tail vein
[11] = group M, α-asarone emulsion injection 15 mg/kg tail vein

`C/C=C/c1cc(OC)c(OC)cc1OC` [α-asarone, trans-2,4,5-trimethoxy-1-propenylbenzene] was tested, and the MNPCE [1, 6] was 0.55 ± 0.43, the PCE [1, 6] was 41.39 ± 6.11 and the “fMNPCE (‰)” value [1, 6] was 12.60 ± 8.53 ‰. For the same compound, the MNPCE [1, 7] was 0.39 ± 0.11, the PCE [1, 7] was 40.58 ± 9.17 and the “fMNPCE (‰)” value [1, 7] was 10.10 ± 2.75 ‰. For the same compound, the MNPCE [1, 8] was 0.47 ± 0.19, the PCE [1, 8] was 38.37 ± 3.18 and the “fMNPCE (‰)” value [1, 8] was 12.34 ± 5.52 ‰. For the same compound, the “micronucleus rate compared to the blank emulsion group” value ([1]; different doses of α-asarone emulsion injection (100, 150, 200 mg/kg/day)) was “no significant difference”, the “changes in the micronucleus rate of mouse bone marrow cells” value ([1]; intravenous dose of up to 200 mg/kg α-asarone emulsion injection) was “no significant changes” and the Beam balance score [2] was 3.30. For the same compound, the Garcia score [2] was 10.94, the Beam balance score [3, 9] was 3.31 and the Garcia score [3, 9] was 10.01. The Beam balance score [3, 10] was 3.16, the Garcia score [3, 10] was 10.60 and the Beam balance score [3, 11] was 3.09. The Garcia score [3, 11] was 10.68, the “curative effect compared with group V (vinpocetine) and group N (nimodipine)” value ([3]; groups L and M, 7.5 and 15 mg/kg) was “better” and the Evans blue content [4] was “significantly reduce”. The brain water content [4] was “significantly reduce”, the “calcium level in brain tissue” value ([5]; Fluo-3 flow cytometry) was “significantly reduce” and the “mitochondrial membrane potential in brain tissue” value ([5]; Rhodamine 123 flow cytometry) was “stabilize”.
